The source of these data is ChEMBL document CHEMBL1139129, “Bis-styrylpyridine and bis-styrylbenzene derivatives as inhibitors for Abeta fibril formation” (Bioorg Med Chem Lett, 2007).

Amyloid-beta precursor protein, sequence (P05067 whole entry): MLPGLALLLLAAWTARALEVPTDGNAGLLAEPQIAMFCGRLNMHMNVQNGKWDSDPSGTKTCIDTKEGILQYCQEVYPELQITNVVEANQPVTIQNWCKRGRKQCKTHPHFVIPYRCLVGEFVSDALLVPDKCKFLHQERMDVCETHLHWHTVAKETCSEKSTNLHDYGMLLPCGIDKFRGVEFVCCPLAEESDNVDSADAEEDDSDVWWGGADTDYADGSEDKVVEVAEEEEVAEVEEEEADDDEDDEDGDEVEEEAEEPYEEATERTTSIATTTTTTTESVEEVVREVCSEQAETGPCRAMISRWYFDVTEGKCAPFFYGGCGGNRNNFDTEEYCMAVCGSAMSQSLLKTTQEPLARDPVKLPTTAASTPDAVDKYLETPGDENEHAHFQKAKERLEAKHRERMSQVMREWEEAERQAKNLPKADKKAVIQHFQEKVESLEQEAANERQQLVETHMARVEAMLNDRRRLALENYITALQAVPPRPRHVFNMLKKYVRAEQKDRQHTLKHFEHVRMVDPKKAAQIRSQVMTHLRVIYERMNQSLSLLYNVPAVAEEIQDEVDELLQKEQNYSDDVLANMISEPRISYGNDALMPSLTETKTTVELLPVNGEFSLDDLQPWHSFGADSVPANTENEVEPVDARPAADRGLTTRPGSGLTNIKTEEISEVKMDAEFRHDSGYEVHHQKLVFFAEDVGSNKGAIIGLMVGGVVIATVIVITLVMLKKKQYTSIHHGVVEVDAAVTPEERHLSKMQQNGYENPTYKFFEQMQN

The test system of one assay is HT-22. The assay is described as follows: Cytotoxicity against HT22 cells assessed as cell viability at 10 uM by MTT assay relative to control. Format: functional, Homo sapiens. Conditions: Mus musculus, read-out: Activity.
With `COc1cc(/C=C/C(=O)CC(=O)/C=C/c2ccc(O)c(OC)c2)ccc1O` [CURCUMIN], the viability at 10 µM worked out at 116%.
Still for that read-out and setting: the value for `CNc1ccc(/C=C/c2cccc(/C=C/c3ccc(NC)c(OC)c3)c2)cc1OC` [listing 1 of 2 here] was 150%.

Another assay concerns the target Amyloid-beta precursor protein (Homo sapiens, UniProt P05067). Description: Inhibition of amyloid beta 42 fibril formation by thioflavin T assay.
Conditions: not given
By IC50 is commonly meant the midpoint of a concentration-inhibition curve. Read a high IC50 as weaker potency in that assay. Compound `CNc1ccc(/C=C/c2cccc(/C=C/c3ccc(NC)c(O)c3)n2)cc1O` showed an IC50 of 900 nM.
Turning to `COc1cc(/C=C/c2cc(Cl)cc(/C=C/c3ccc(O)c(OC)c3)n2)ccc1O`, inhibition was half-maximal at 1100 nM (IC50).
The same measure, in the same setting: the value for `CN(C)c1ccc(/C=C/c2cc(Br)cc(/C=C/c3ccc(N(C)C)cc3)c2)cc1` was over 20000 nM.
Still for that read-out and setting: the value for `CN(C)c1ccc(/C=C/c2cc(I)cc(/C=C/c3ccc(N(C)C)cc3)c2)cc1` was over 20000 nM.
Same read-out and setting: the result for `CN(C)c1cc(/C=C/c2cccc(/C=C/c3ccc(O)c(N(C)C)c3)c2)ccc1O` reads 2700 nM; that for `COc1cc(/C=C/c2cccc(/C=C/c3ccc(N)c(OC)c3)c2)ccc1N`, 600 nM; that for `COc1cc(/C=C/c2cc(N(C)C)cc(/C=C/c3ccc(O)c(OC)c3)n2)ccc1O`, 1900 nM.
For the compound `COc1cc(/C=C/c2cccc(/C=C/c3ccc(N)c(OC)c3)n2)ccc1N`, half-maximal inhibition (IC50) was put at 700 nM.
`COc1cc(/C=C/c2cccc(/C=C/c3ccc(N(C)C)c(OC)c3)c2)ccc1N(C)C`: inhibition was half-maximal at 1000 nM (IC50).
The same measure, in the same setting: the value for `COc1cc(/C=C/c2cc(Br)cc(/C=C/c3ccc(N)c(OC)c3)c2)ccc1N` was 1800 nM.
In turn, `CN(C)c1ccc2cc3ccc(N(C)C)cc3nc2c1` [ACRIDINE ORANGE] displayed a 50% inhibitory concentration (IC50) of 600 nM.
The compound `COc1ccc(/C=C/c2cc(Br)cc(/C=C/c3ccc(OC)c(OC)c3)c2)cc1OC` registered an IC50 of 20000 nM.
As for `COc1ccc(/C=C/c2cccc(/C=C/c3ccc(OC)c(N)c3)n2)cc1N`, half-maximal inhibition (IC50) required 600 nM.
On the same count and under the same terms, the value for `CNc1cc(/C=C/c2cccc(/C=C/c3ccc(OC)c(NC)c3)c2)ccc1OC` was 1300 nM; that for `CNc1ccc(/C=C/c2cccc(/C=C/c3ccc(NC)c(OC)c3)n2)cc1OC` was 500 nM.
`COc1ccc(/C=C/c2cccc(/C=C/c3ccc(OC)c(N)c3)c2)cc1N` yielded an IC50 of 300 nM.
On the same count and under the same terms, the value for `COc1cc(/C=C/c2cccc(/C=C/c3ccc(O)c(OC)c3)n2)ccc1O` was 800 nM; that for `CN(C)c1ccc(/C=C/c2cccc(/C=C/c3ccc(N(C)C)c(O)c3)c2)cc1O` was 700 nM; that for `CN(C)c1cc(/C=C/c2cccc(/C=C/c3ccc(O)c(N(C)C)c3)n2)ccc1O` was 2300 nM.
For `CNc1cc(/C=C/c2cccc(/C=C/c3ccc(O)c(NC)c3)n2)ccc1O`, the midpoint of inhibition, the IC50, lay at 500 nM.
For the compound `COc1cc(/C=C/c2cc(Br)cc(/C=C/c3ccc(N)c(OC)c3)n2)ccc1N`, the IC50 came to 1100 nM.
Same read-out and setting: the result for `COc1cc(/C=C/c2cc(C)cc(/C=C/c3ccc(O)c(OC)c3)n2)ccc1O` reads 1400 nM; that for `COc1ccc(/C=C/c2cccc(/C=C/c3ccc(OC)c(N(C)C)c3)c2)cc1N(C)C`, 1100 nM; that for `CNc1cc(/C=C/c2cccc(/C=C/c3ccc(OC)c(NC)c3)n2)ccc1OC`, 1100 nM.
Same read-out and setting: the result for `COc1cc(/C=C/c2ccc(O)c(OC)c2)nc(/C=C/c2ccc(O)c(OC)c2)c1` reads 1700 nM.
Still for that read-out and setting: the value for `COc1cc(/C=C/c2cc(Br)cc(/C=C/c3ccc(O)c(OC)c3)n2)ccc1O` was 1100 nM; that for `COc1ccc(/C=C/c2cccc(/C=C/c3ccc(OC)c(N(C)C)c3)n2)cc1N(C)C` was 900 nM; that for `O=C(O)c1cc(/C=C/c2ccc(/C=C/c3ccc(O)c(C(=O)O)c3)c(I)c2)ccc1O` was 8000 nM.
As to `CN(C)c1ccc(/C=C/c2cccc(/C=C/c3ccc(N(C)C)cc3)c2)cc1`, the IC50 is over 20000 nM.
Compound `COc1cc(/C=C/c2cccc(/C=C/c3ccc(N(C)C)c(OC)c3)n2)ccc1N(C)C` came in with an IC50 of 800 nM.
On the same count and under the same terms, the value for `COc1cc(/C=C/c2cccc(/C=C/c3ccc(N4CCCC4)c(OC)c3)c2)ccc1N1CCCC1` was over 20000 nM; that for `CN(C)c1ccc(/C=C/c2cccc(/C=C/c3ccc(N(C)C)c(O)c3)n2)cc1O` was 900 nM.
`CNc1ccc(/C=C/c2cccc(/C=C/c3ccc(NC)c(OC)c3)c2)cc1OC` [listing 2 of 2 here]: the IC50 came to 600 nM.
The compound `COc1cc(/C=C/c2cc(Br)cc(/C=C/c3ccc(O)c(OC)c3)c2)ccc1O` gave an IC50 of 100 nM.
